Experimental data reported in article PMC9694334, “Synthesis and Biological Evaluation of a Fused Structure of Indolizine and Pyrrolo[1,2-c]pyrimidine: Identification of Its Potent Anticancer Activity against Liver Cancer Cells” (Pharmaceuticals, 2022).

Tests used:
[1] = tested on: H1299 cells; assay: Cell viability assay (MTS) in H1299 cells; type: cell-based; conditions: 72 h, MTS, Figure 2D
Method: (§1) HepG2, Huh7, H1299, HT29, AGS and A549 cells were purchased from the Korean Cell Line Bank (Seoul, Korea) and HaCaT cells were obtained from Prof. Sohee Kwon (Yonsei University, Korea). Liver cancer cells (HepG2), human keratinocyte cells (HaCaT), and lung cancer cells (A549) were grown in DMEM high-glucose medium, liver cancer cells (Huh7) and non-small cell lung cancer cells (H1299) were grown in RPMI 1640, and gastric cancer cells (AGS) were grown in Coon’s modified F12 medium. All media were supplemented with 10% FBS, 100 Units/mL penicillin, and 100 μg/mL streptomycin. All cells were incubated at 37 °C, 5% CO2 and 95% humidity.
(§2) Cell viability assay was conducted using Cell Titer 96® AQueous One Solution Cell proliferation Assay kit (Promega, Madison, WI, USA). Five cancer cells and HaCaT cells were plated in 96-well microplates with growth medium for 24 h. When cell confluency reached ~30%, cells were treated with DMSO (vehicle) and test compounds. The medium and test compounds were replaced every 24 h. To measure cell viability, the cells were incubated with MTS solution for 1 h. The absorbance was measured by using Infinite M200 microplate reader (Tecan, Männedorf, Switzerland) at 490 nm.
(§3) Figure 2 Effect of 5r on cell viability in HepG2, Huh7, AGS, H1299, A549, HaCaT, NIH3T3, and HEK293T cells. (A–H) HepG2, Huh7, AGS, H1299, A549, HaCaT, NIH3T3, and HEK293T cells were cultured with 5r at the indicated concentrations for 72 h, and medium was replaced every 24 h with freshly added 5r. Cell viability was measured by MTS analysis (mean ± S.D., n = 5). * p < 0.05, ** p < 0.01, *** p < 0.001.

[2] = tested on: AGS cells; assay: Cell viability assay (MTS) in AGS cells; type: cell-based; conditions: 72 h, MTS, Figure 2C
Method: as §1, §2, §3

[3] = tested on: A549 cells; assay: Cell viability assay (MTS) in A549 cells; type: cell-based; conditions: 72 h, MTS, Figure 2E
Method: as §1, §2, §3

[4] = tested on: HaCaT cells; assay: Cell viability assay (MTS) in HaCaT cells; type: cell-based, human
Method: as §1, §2, §3

[5] = tested on: HEK293T cells; assay: Cell viability assay (MTS) in HEK293T cells; type: cell-based; conditions: 72 h, Figure 2H
Method: as §2, §3

[6] = tested on: caspase-3; assay: Caspase-3 activity assay in HepG2 cells; type: cell-based; conditions: 3 µM 5r for 24 h, Figure 4A
Method: HepG2 and Huh7 cells were plated in 96-black-well plate to about 40% confluence, and then 5r was treated for 24 h. To assess activity of caspase-3, the growth medium was changed with 100 μL of PBS containing 1 μM caspase-3 substrate, NucView 488, and incubated at room temperature. After 20 min, 1 μM Hoechst 33342 was treated to stain the cells. Activity of caspase-3 was suppressed by Ac-DEVD-CHO, a selective caspase-3 inhibitor. FLUOstar Omega microplate reader (BMG Labtech, Ortenberg, Germany) was used to assess the fluorescence of NucView 488 and Hoechst, and Lionheart FX Automated Microscope (BioTek, Winooski, VT, USA) was used to acquire the fluorescence microscopy images.
Figure 4 Effect of 5r on activity of caspase-3 and cleavage of PARP in HepG2 and Huh7 cells. (A,B) HepG2 and Huh7 cells were incubated with 3 µM 5r for 24 h and then incubated with 1 µM caspase-3 substrate (green) and 1 µM Hoechst 33,342 (blue) for 20 min before image acquisition. (C,D) Cells were cultured with 5r at the indicated concentrations for 24 h and then 1 μM caspase-3 substrate was treated for 20 min. Caspase-3 was inhibited by 20 μM Ac-DEVD-CHO (mean ± S.D., n = 3). (E,F) Cells were cultured with 5r at the indicated concentrations for 24 h, and expression level of PARP, cleaved-PARP and β-actin were measured by Western blot analysis. […]

[7] = tested on: cleaved PARP; assay: Western blot analysis of cleaved PARP in HepG2 cells; type: cell-based; conditions: 24 h, Figure 4E,G
Method: For Western blot analysis, HepG2 and Huh7 cells were lysed with RIPA buffer (50 mM Tris-HCl, PH 7.4, 1% Nonidet P-40, 0.25% sodium deoxycholate, 150 mM NaCl, 1 mM EDTA, 1 mM Na3VO4, and protease inhibitor). Lysed samples were centrifuged at 13,000 RPM for 20 min at 4 °C to remove the cell debris, and equal amounts (60 μg protein/lane) of supernatant protein were divided by 4–12% Tris Glycine Precast Gel (KOMA BIOTECH, Seoul, Korea). Then, PVDF membranes (Millipore, Billerica, MA, USA) were used to transfer the separated proteins. Membrane blocking was performed by Tris-buffered saline with 0.1% Tween 20 (TBST) containing 5% bovine serum albumin (BSA) at room temperature for 50 min. The membranes were incubated with primary antibodies overnight at 4 °C with the indicated primary antibodies: anti-cleaved PARP (BD Biosciences) and anti-β-actin (Santa Cruz Biotechnology, Dallas, TX, USA). […] After 1 h, membranes were detected by using ECL Plus Western blotting detection system (GE Healthcare, Piscataway, NJ, USA).
Figure 4 Effect of 5r on activity of caspase-3 and cleavage of PARP in HepG2 and Huh7 cells. […] (E,F) Cells were cultured with 5r at the indicated concentrations for 24 h, and expression level of PARP, cleaved-PARP and β-actin were measured by Western blot analysis. […]

[8] = tested on: HepG2 cells; assay: Flow cytometry cell cycle analysis (propidium iodide) in HepG2 cells; type: cell-based; conditions: 3 µM 5r for 24 h
Method: HepG2 cells were grown to approximately 40% confluence in a 6-well plate and then 5r was treated for 24 h. After 24 h, HepG2 cells were washed out twice with PBS and centrifuged at 1000 RPM for 2 min at room temperature. The cells were stained with propidium iodide for 15 min and then cell cycle phases were measured by using FACS (Beckman Coulter, Fullerton, CA, USA).
Figure 5 Effect of 5r on cell cycle in HepG2 cells. (A,B) HepG2 cells were treated with 3 µM 5r for 24 h and then cell cycle phases were measured by propidium iodide staining, followed by flow cytometry analysis.

[9] = tested on: HepG2 cells; assay: Combination of 5r with gemcitabine, cell viability (MTS) in HepG2 cells; type: cell-based; conditions: co-treatment with gemcitabine (0.3 μM), 72 h
Method: as §2
Figure 6 Combination effect of 5r and gemcitabine on cell viability in HepG2 and Huh7 cells. (A,B) HepG2 and Huh7 cells were cultured with the indicated concentrations of 5r and gemcitabine (0.3 μM) for 72 h, and medium was replaced every 24 h with freshly added 5r and gemcitabine. Cell viability was determined by MTS analysis (mean ± S.D., n = 5). ** p < 0.01, *** p < 0.001.

N#Cc1c2c3cccn3c(-c3ccccc3O)nc2n2ccccc12 [Compound 5r, 5-(2-Hydroxyphenyl)pyrrolo[1′,2′:1,6]pyrimido[5,4-b]indolizine-12-carbonitrile]
Effect on cell viability in H1299 cells [1]: weak effect | Effect on cell viability in AGS cells [2]: weak effect | Effect on cell viability in A549 cells [3]: weak effect | Effect on cell viability in non-cancerous HaCaT cells ([4]; 72 h, Figure 2F): weakly decreased cell viability | IC50 ([4]; Homo sapiens, mean, n = 5): 6.91 µM | Effect on cell viability in non-cancerous HEK293T cells [5]: weakly decreased cell viability | Caspase-3 activity in HepG2 cells [6]: potently increased caspase-3 activity | Expression level of cleaved PARP in HepG2 cells [7]: increased the expression level of cleaved PARP in a dose-dependent manner | Ratio in the G2/M phase [8]: did not affect | Sub-G1 (apoptotic peak) phase ratio ([8]; control 24.1%): 56.9% | G0/G1 phase ratio ([8]; control 64.6%): 29.3% | Combination effect with gemcitabine on cell viability in HepG2 cells [9]: additional effect rather than a synergistic effect
